Data set [1] has as its system AR nuclear translocation in AILNCaP14 cell line. In words: AR nuclear translocation suppression test using immunofluorescent staining. As to conditions: 0.25 μM, 4 days, vs DMSO control. It counts as cell-based. As to the method:
1×10^5 cells of the […]14 cell line were seeded on a 48-well plate to which 0.5 mL/well of medium was dispensed. After 3 days of culture under the conditions of 5% CO2 at 37° C., a DMSO solution of alvocidib was diluted with a medium so that the final concentration of alvocidib would be 0.25 μM and added to each well (final volume of 1.0 mL). As a control, alvocidib-free DMSO was similarly diluted and added. After culturing for 4 days, the cells were gently washed once with PBS, and immobilized by allowing 4% paraformaldehyde phosphate buffer to act on the cells for 15 minutes. After washing the cells gently twice with PBS, the cells were incubated for 15 minutes in a 4% PBST solution. The cells were further incubated for 15 minutes in a blocking reagent (DS Pharma Biomedical, Cat no. UK-B80), and the cells were then incubated overnight at 4° C. after adding an anti-AR antibody (Santa Cruz Biotechnology Inc., Cat no. sc-816). After washing the cells gently twice with PBS, the cells were incubated for 45 minutes at room temperature after adding a secondary antibody for immunofluorescent staining (Thermo Fisher Scientific, Cat no A-21206). After washing the cells gently twice with PBS, the cells were incubated for 10 minutes after adding DAPI (Nacalai tesque, Cat no. 11034-56). After washing the cells twice for 10 minutes with 1% PBS, signals were measured with a fluorescence microscope.

In data set [2] the test system is androgen receptor (AR) phosphorylation in AILNCaP14 cell line. Put plainly: AR phosphorylation suppression test by immunoblotting. The data set is classed as cell-based. As to conditions: 0.25 uM, 1 to 4 days. (A western blot detects proteins with antibodies after separation by electrophoresis.)
Description: (§3) After the culturing, each of 1×10^6 cells were washed with ice cooled PBS, and then treated with cell lysis buffer containing 8 M of urea, 20 mM of Tris hydrochloride (pH 7.4), 1 mM of EDTA, and protease inhibitor (Nacalai tesque, Cat no. 03969) and phosphatase inhibitor (Nacalai tesque, Cat no. 07575-51)—added 1.0% Triton X. The cell lysate was then subjected to high speed centrifugation (21,500 G) for 20 minutes at 4° C. The total amount of cell protein was quantified using a protein quantification reagent (Thermo Fisher Scientific, Cat no. 23227).
As a positive control, JQ1 (Cayman Chemical) was used.
The subject of data set [3] is AILNCaP14 cell derived subcutaneous xenograft. Put plainly: Tumor proliferation suppression test using a subcutaneous xenograft mouse model. The data set is classed as in vivo. As to conditions: castrated NOD-SCID mice; 3 mg/kg intraperitoneally, three times every two days; vs saline negative control; p value=0.0497.
Description: 2×10^6 […] 14 cells were subjected to suspension culture for 4 days using a PrimeSurface® petri dish 90 mm (product code: MS-9090X) in a phenol red free RPMI 1640 medium containing activated carbon-treated 10% fetal bovine serum (csFBS). The cultured cells that were collected, mixed with 350 uL of Matrigel (Corning® Matrigel® Basement Membrane Matrix; catalog number: 356237), and then divided into 3 equal portions were transplanted subcutaneously into three sites on NOD-SCID mice (male, 8 mice, 6 to 8 weeks old) 7 days after castration. […] The tumor volume after three days (day 7) from the third administration was measured, and the ratio of increase in tumor volume was computed in accordance with the following equation. Ratio of increase in tumor volume=tumor volume on day 7/tumor volume on day 0 As a negative control group, the same test was conducted using saline in place of an agent administered solution, and the ratio of increase in tumor volume was computed.
For a further data set, the system named is AILNCaP14 cell line. In words: Cell proliferation suppression test (crystal violet staining). It counts as cell-based. On the procedure: (§1) 5×10^3 cells of the LNCaP cell line, 4×10^4 cells of the AILNCaP14 cell line, and 6×10^4 cells of the AILNCaP15 cell line were each seeded on a 24-well plate to which 1 mL/well of medium was dispensed. […] After culturing each cell line for an additional two weeks, the status of cell proliferation was measured by cell staining (Bommi-Reddy et al. Proc Natl Acad Sci USA. 105: 16484-16489 (2008)) using crystal violet.
(§2) The final concentrations of alvocidib were set to be 0.125, 0.25, 0.5, and 1.0 uM.

The test system of a further data set is AILNCaP15 cell line. Described as above. It counts as cell-based. As to the method: as §1, §2
The subject of data set [4] is androgen receptor (AR) phosphorylation in AILNCaP15 cell line. In words: AR phosphorylation suppression test by immunoblotting. As to conditions: 0.25 uM, 1 to 4 days. It counts as cell-based.
Description: as §3
Data set [5] is described as follows: Body weight in the xenograft mouse test. It counts as in vivo. As to conditions: NOD-SCID mice; 3 mg/kg intraperitoneally, three times every two days. On the procedure:
2×10^6 […]14 cells were subjected to suspension culture for 4 days using a PrimeSurface® petri dish 90 mm (product code: MS-9090X) in a phenol red free RPMI 1640 medium containing activated carbon-treated 10% fetal bovine serum (csFBS). The cultured cells that were collected, mixed with 350 uL of Matrigel (Corning® Matrigel® Basement Membrane Matrix; catalog number: 356237), and then divided into 3 equal portions were transplanted subcutaneously into three sites on NOD-SCID mice (male, 8 mice, 6 to 8 weeks old) 7 days after castration. After the subcutaneous transplantation, the mice were continuously raised, and an aqueous saline solution of alvocidib hydrochloride (3 mg/kg) was administered intraperitoneally to the mice for a total of three times at an interval of once every two days from the point (day 0) where the volume of tumor formed subcutaneously reached 25 mm^3 or greater and 100 mm^3 or less at one or two of the tumor transplantation sites.

Another data set relates to LNCaP cell line. Put plainly: Cell proliferation suppression test (crystal violet staining). The data set is classed as cell-based. As to conditions: final concentration of 0.625 uM or greater, two weeks culture. On the procedure:
as §1

[6] abbreviates: 336 h, two weeks culture, crystal violet.
Where [7] appears, read: final concentration of 0.25 uM or greater.
Setting [8] is: final concentration of 5 uM, compared to LNCaP cell line.

Molecules are shown by their SMILES.

Two compounds from patent US20220071978A1, “CANCER TREATMENT PHARMACEUTICAL COMPOSITION CONTAINING CDK INHIBITOR” (SUMITOMO DAINIPPON PHARMA CO., LTD., priority 2018, published 2022) can be followed below.

The IC50 is the concentration needed to halve the response being measured. Lower therefore signals inhibition by little substance. As for `CN1CC[C@H](c2c(O)cc(O)c3c(=O)cc(-c4ccccc4Cl)oc23)[C@H](O)C1` [alvocidib, 2-(2-chlorophenyl)-5,7-dihydroxy-8-[(3S,4R)-3-hydroxy-1-methylpiperidin-4-yl]-4H-1-benzopyran-4-one], the AR nuclear translocation result in data set [1] was “suppressed”. For the same compound, the “phosphorylation of serine 81 of AR” value in data set [2] and in data set [4] was “suppressed over time” throughout. The “phosphorylation of serine 210 or serine 213 of AR” value in data set [2] and in data set [4] was “suppressed over time” each time. The “ratio of increase in tumor volume (day 7/day 0)” value in data set [3] was “decreased”. In addition, the IC50 in the data set with AILNCaP14 cell line (setting [6]) and in the data set with AILNCaP15 cell line (setting [6]) was 125 to 250 nM in each case. The “effect of suppressing cell proliferation” value in the data set with AILNCaP14 cell line (setting [7]) and with AILNCaP15 cell line (setting [7]) was “very potent effect of suppressing cell proliferation” throughout. Besides, in data set [5], the “decrease in the body weight of mice” value is on record as “not observed”.

As to `CNC(=O)c1ccc(N2C(=S)N(c3ccc(C#N)c(C(F)(F)F)c3)C(=O)C2(C)C)cc1F` [enzalutamide], the “suppression of cell proliferation” value with LNCaP cell line is “clear suppression of cell proliferation”; with AILNCaP14 cell line (setting [8]), “significant weaker suppression of cell proliferation”; in the data set on AILNCaP15 cell line (setting [8]) it was “significant weaker suppression of cell proliferation”.
